Usually Kd stands for the equilibrium constant for the complex coming apart.

One series relates to NIH3T3 cells. Nature of the series: RT-PCR of fibroblast activation markers, TGF-β1 and inflammatory factors in dECM-stimulated fibroblast. Format: cell-based, mouse. Conditions: for mRNA levels of α-SMA, FN, Col I and TGF-β1: peptide, induced by dECM-Nor and dECM-PF. On the procedure: (§1) Decellularized lung ECM (dECM) was prepared as described in previous study. 2 × 10^5 cells/mL NIH3T3 cells (mouse […], purchased from the Stem Cell Bank of the Chinese Academy of Sciences, Shanghai, China) were seeded on the dECM slices attached to the bottom of the culture dish and cultured in DMEM medium containing 0.5% fetal bovine serum (Gibco, Waltham, MA, USA) at 37°C and 5% CO2.
(§2) Total RNA was extracted from cells or lung tissue (10 mg) using Trizol reagent, and mRNA was reverse transcribed into cDNA using HiScript® II QRT SuperMix for qPCR (Vazyme, #R223-01). Real-time fluorescence quantitative PCR (RT-PCR) was performed using Hieff® qPCR SYB Green Master Mix (YEASEN, #11201ES08) to obtain the Ct value. The 2^−ΔΔCt method was used to obtain the relative expression level of mRNA in each group. Primers (Table 1) were purchased from Sangon Biotech.

The target of a further series is integrin-αvβ1 (Homo sapiens, UniProt P05556+P06756). The experiment in a line: SPR binding of peptides to integrin-αvβ1 (Biacore 8K+). Conditions: Biacore 8K+, 25°C, integrin-αvβ1 on CM5 chip, PBS + 0.05% Tween-20, peptide 0.78-100 μM, Figure 7E, small labels, best readings. As for the experimental part:
The Biacore 8K+ system (GE Healthcare) was used at 25°C. The ligand integrin-αvβ1 (1 mg/mL) was routinely coupled to the sensor chip (Series S Sensor Chip CM5, Cytiva, #100530). The peptide samples SDC4_87-131 and CS-1, -2, -3, -4, -8, -9, -10 were dissolved in PBS, and then, the samples with different concentration gradients (0.78, 1.56, 3.125, 6.25, 12.5, 25, 50, 100 μM) were injected, respectively, under the driving of buffer PBST (PBS + 0.05% Tween-20). The signal intensity was quantified in relative units (RU), and binding affinity was determined using the dissociation constant (Kd). After the experiment, 10 mM glycine-HCl buffer solution (pH = 2) was selected to regenerate the chip surface.
A general note: In SPR one partner is held on a chip, and binding of the other changes the refractive index at the surface.

The next series relates to pan-integrins. Nature of the series: FN-coating cell adhesion assay (pan-integrins activation). Conditions: 100 nM, n=4–5. The class given is cell-based, mouse. On the procedure: 10 μg/mL Fibronectin (Merck, #10838039001) was dissolved in serum-free DMEM medium and dropped into a 96-well plate, 50 μL per well. The plate was incubated at 4 °C overnight. After blocking with 3% bovine serum albumin at room temperature for 30 min, 4×10^4 cells were inoculated into each well. After incubation for 30 min, the cells were washed, fixed, and stained with crystal violet (5 mg/mL) for 30 min. Then after the crystal violet was dissolved, it was detected using an ELISA reader at 595 nm.

Series [1] relates to integrin-αvβ1, FAK/AKT and PKCα/NF-κB pathways in NIH3T3 cells. The experiment in a line: Western blot of signaling proteins in dECM-stimulated fibroblast. Format: cell-based, mouse. Conditions: dECM, n=3; for protein levels of α-SMA, integrin-αv, p-FAK and p-PKCα: designed peptides. On the procedure: as §1
20 mg of lung tissue was extracted with RIPA lysis buffer (Roche International Ltd., Bermuda, USA), and the protein concentration was determined using a BCA protein detection kit (Roche). Protein samples were separated by 10% sodium dodecyl sulfate polyacrylamide gel (SDS-PAGE) electrophoresis and transferred to a PVDF membrane. After blocking, the PVDF membrane was incubated with primary antibodies for α-SMA, Integrin-αV, SDC4, Integrin-β1, p-Smad3, FAK, and p-FAK (CST, #19245, #4711, #12236S, #34971, #9520S, #3285S, and #3284S) at 4°C overnight, followed by incubation with secondary antibodies (CST, #7074P2), development with ECL reagent (SAB), and acquisition of images with a chemiluminescence imaging system (ChemiScope 5600).

For the next series, the system named is fibroblast. The experiment in a line: CCK-8 fibroblast viability/toxicity. Format: cell-based, mouse. As to conditions: discussion. As for the experimental part:
as §1
(A) Schematic diagram of SDC487-131; (B) Effect of SDC487-131 and GRGDNP on fibroblast proliferation at 48 h was determined by CCK-8 method (n=3); (C) Effect of different concentration of SDC487-131 on fibroblast activation induced by d-PF for 48 h (n=5). Note: **p < 0.01 vs. PBS in d-Nor group; #p < 0.05 vs. PBS in d-PF group. d-Nor: dECM-Nor; d-PF: dECM-PF.
Figure S14. The viability of fibroblast after treated with peptides for 48 h was detected by CCK-8 assay.

Series [2] relates to BLM-induced PF, C57BL/6J mice. Nature of the series: BLM-induced PF in mice: HE, Masson, hydroxyproline. Format: in vivo, mouse. Conditions: 1 mg/kg tracheal instillation. As for the experimental part: C57BL/6J mice (male, 8-to 9-week old, 18–22 g, SPF grade) were purchased from Shanghai Slake Laboratory Animal Co., Ltd. [SCXK (Hu) 2022-0004, Shanghai, China]. […] The mice were housed in an SPF environment with 22–25°C, 46–65% humidity and 12 h/12 h light-dark alternation, with free access to water and food. This animal experiment was approved by the Experimental Animal Welfare Ethics Committee of Fujian Medical University (No. FJMU IACUC 2021-0465), and was carried out in accordance with the National Research Council's Guide for the Care and Use of Laboratory Animals.
(§3) After the mice were anesthetized (1% sodium pentobarbital 50 mg/kg was injected intraperitoneally), 150 μL of bleomycin (BLM, 5 mg/mL, BIO-000001) was inhaled into the lungs of the mice by tracheal inhalation instillation. One day later, the mice were randomly divided into model and drug treatment groups, and the mice in the control group were only subjected to saline inhalation.
(§4) Based on the dosage of SDC2 fragment peptide and our experimental results (Supplementary Figure S10A and B), the dosage schedule of SDC4_87-131 was set as follows: starting on the third day after BLM inhalation, 1 mg/kg, administered via trachea infusion once every three days. And Anti-SDC4(93-121) 8 mg/kg was administered on the third and tenth days (reference dosage).
Lung tissue samples were paraffin-embedded, then sliced and dewaxed, and HE and Masson staining were performed respectively. After dehydration and sealing, images were collected and analyzed using a microscope.
100 mg of lung tissue was accurately weighed and processed according to the instructions of the hydroxyproline assay kit (Nanjing Jiancheng, Nanjing, China), and the absorbance was measured at a wavelength of 550 nm. The data were expressed as micrograms (µg) of hydroxyproline per mg of dry lung tissue.

Series [3] deals with BLM-induced PF, C57BL/6J mice. Nature of the series: BLM-induced PF in mice: RT-PCR of lung tissue. Format: in vivo, mouse. Conditions: 1 mg/kg tracheal instillation, q3d, n=4–6. As for the experimental part:
as §3, §4, §2

integrin-αvβ1, sequence (P06756 31-992 limits assumed): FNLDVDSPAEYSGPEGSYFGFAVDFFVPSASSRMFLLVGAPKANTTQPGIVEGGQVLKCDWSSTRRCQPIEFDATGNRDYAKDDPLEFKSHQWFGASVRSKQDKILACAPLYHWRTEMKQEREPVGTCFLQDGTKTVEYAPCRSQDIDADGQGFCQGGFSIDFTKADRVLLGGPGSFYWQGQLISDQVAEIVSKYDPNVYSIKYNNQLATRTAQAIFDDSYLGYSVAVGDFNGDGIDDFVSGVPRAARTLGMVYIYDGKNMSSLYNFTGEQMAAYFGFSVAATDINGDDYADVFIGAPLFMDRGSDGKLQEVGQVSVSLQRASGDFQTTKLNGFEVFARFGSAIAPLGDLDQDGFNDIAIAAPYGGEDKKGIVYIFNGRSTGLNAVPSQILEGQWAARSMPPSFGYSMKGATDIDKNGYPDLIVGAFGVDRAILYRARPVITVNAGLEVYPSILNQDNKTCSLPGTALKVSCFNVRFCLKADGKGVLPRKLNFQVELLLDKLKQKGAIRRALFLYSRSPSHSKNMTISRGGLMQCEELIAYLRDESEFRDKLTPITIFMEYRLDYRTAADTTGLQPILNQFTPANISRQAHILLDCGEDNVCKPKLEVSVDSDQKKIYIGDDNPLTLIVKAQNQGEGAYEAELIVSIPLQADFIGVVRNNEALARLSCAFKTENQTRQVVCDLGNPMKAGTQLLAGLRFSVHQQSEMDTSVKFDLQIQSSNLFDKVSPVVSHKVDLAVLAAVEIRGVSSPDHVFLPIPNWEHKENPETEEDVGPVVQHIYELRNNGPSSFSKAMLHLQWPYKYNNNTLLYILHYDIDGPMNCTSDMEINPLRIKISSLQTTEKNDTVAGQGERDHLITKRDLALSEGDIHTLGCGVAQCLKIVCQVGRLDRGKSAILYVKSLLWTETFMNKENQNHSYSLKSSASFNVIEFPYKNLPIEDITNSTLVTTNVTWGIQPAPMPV
integrin-αvβ1, sequence (P05556 21-728 partner limits assumed): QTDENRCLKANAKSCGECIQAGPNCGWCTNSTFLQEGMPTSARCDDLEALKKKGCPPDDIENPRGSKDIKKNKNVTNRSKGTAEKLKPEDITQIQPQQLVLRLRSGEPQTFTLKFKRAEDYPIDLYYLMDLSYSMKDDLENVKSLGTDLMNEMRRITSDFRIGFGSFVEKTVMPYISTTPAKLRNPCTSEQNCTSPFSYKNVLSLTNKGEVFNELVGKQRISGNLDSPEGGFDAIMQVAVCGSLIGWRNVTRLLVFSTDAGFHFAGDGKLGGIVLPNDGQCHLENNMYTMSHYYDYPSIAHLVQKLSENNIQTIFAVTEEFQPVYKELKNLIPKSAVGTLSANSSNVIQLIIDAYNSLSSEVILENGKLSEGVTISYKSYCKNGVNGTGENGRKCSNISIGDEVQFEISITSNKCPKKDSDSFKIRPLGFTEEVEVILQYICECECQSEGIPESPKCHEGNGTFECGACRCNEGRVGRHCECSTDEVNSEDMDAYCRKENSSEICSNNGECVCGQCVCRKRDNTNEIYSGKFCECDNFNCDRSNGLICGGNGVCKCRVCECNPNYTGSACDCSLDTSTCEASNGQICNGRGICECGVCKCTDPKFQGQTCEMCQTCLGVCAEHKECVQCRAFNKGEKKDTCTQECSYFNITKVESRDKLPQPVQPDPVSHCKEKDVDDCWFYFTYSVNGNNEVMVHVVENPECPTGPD

Take `CS(=O)(=O)c1cccc(CNc2nc(Nc3ccc4c(c3)CCC(=O)N4)ncc2C(F)(F)F)c1` [PF-573228, reference compound]: in the series on NIH3T3 cells (1 μM, 3 μM, mRNA levels, n=4), the “dECM-PF-induced fibroblast activation and TGF-β1 upregulation” value is “significantly reduced dECM-PF-induced fibroblast activation and TGF-β1 upregulation in a dose-dependent manner”.
For “Ac-GSADPRAVPTEPKKLSPVEESEDITNSTLV-NH2 [CS-10]”, the Kd on integrin-αvβ1 is 35.4 nM. Also, in the series with NIH3T3 cells (dECM, n=5), the “effects on FN and Col I mRNA vs SDC4_87-131” value is “significantly greater than those of SDC4_87-131”. For the same compound, in the series with NIH3T3 cells (n=5), the “mRNA levels of α-SMA, FN, Col I and TGF-β1” value (shortened to “mRNA levels of α-SMA, FN”) is “significantly downregulate”. Besides, the “inhibition of pan-integrins activation vs SDC4_87-131” value (“inhibition … vs SDC4_87-131” below) in the series with pan-integrins was “stronger than that of SDC4_87-131”. Moreover, in series [1], the “protein levels of α-SMA, integrin-αv, p-FAK and p-PKCα” value (“protein levels … p-FAK and p-PKCα” for short) was “significantly decrease the protein levels”.
“Ac-NHIPERAGSGSQVPTEPKKLSPVEESEDRSNKVSM-NH2 [CS-2]”: the Kd on integrin-αvβ1 came to 29.1 nM.
The same measure, in the same setting: the value for “Ac-NHIPERAGSGSQVPTEPKKLSPVEESEDVSNKVSMTTNVT-NH2 [CS-1]” was 12.8 nM.
Take “Ac-NHIPERAGSGSQVPTEPKKLSPVEESEDWSNKVSM-NH2 [CS-3]”: the Kd on integrin-αvβ1 amounted to 64.9 nM. In addition, the “effects on FN and Col I mRNA vs SDC4_87-131” value with NIH3T3 cells (dECM, n=5) is listed as “significantly greater than those of SDC4_87-131”. In the series on NIH3T3 cells (n=5), the “mRNA levels of α-SMA, FN” value is “significantly downregulate”. In addition, the “inhibition … vs SDC4_87-131” value with pan-integrins is listed as “stronger than that of SDC4_87-131”. Besides, in series [1], the “protein levels … p-FAK and p-PKCα” value is “significantly decrease the protein levels”.
As for “Ac-NHIPERAVPTEPKKLSPVEESEDITNSTLV-NH2 [CS-8]”, the Kd on integrin-αvβ1 was found to be 25.9 nM. The “effects on FN and Col I mRNA vs SDC4_87-131” value in the series on NIH3T3 cells (dECM, n=5) is “significantly greater than those of SDC4_87-131”. Further, in the series on NIH3T3 cells (n=5), the “mRNA levels of α-SMA, FN” value is “significantly downregulate”. Further, in the series on pan-integrins, the “inhibition … vs SDC4_87-131” value was “stronger than that of SDC4_87-131”. Also, in series [1], the “protein levels … p-FAK and p-PKCα” value was “significantly decrease the protein levels”.
As for “Ac-NHIPERAVPTEPKKLSPVEESEDITNSTLVTTNVT-NH2 [CS-4]”, on integrin-αvβ1, the Kd was 32.3 nM. For the same compound, in the series on NIH3T3 cells (dECM, n=5), the “effects on FN and Col I mRNA vs SDC4_87-131” value is on record as “significantly greater than those of SDC4_87-131”. Also, in the series on NIH3T3 cells (n=5), the “mRNA levels of α-SMA, FN” value is recorded as “significantly downregulate”. The “inhibition … vs SDC4_87-131” value in the series with pan-integrins is listed as “stronger than that of SDC4_87-131”. In series [1], the “reduction of integrin-αv and p-FAK vs SDC4_87-131” value is “weaker reduction in integrin-αv and p-FAK compared to SDC4_87-131”; the “protein levels … p-FAK and p-PKCα” value is reported as “significantly decrease the protein levels”.
Turning to “Ac-NHIPETVEDPEPKKLSPVEESEDITNSTLV-NH2 [CS-9]”, the Kd at integrin-αvβ1 worked out at 10.9 nM. The “toxicity (summary)” value in the series with fibroblast is “low toxicity”. Besides, in the series on NIH3T3 cells (dECM, n=5), the “downregulation of all four mRNAs (α-SMA, FN, Col I, TGF-β1) vs SDC4_87-131” value is on record as “significantly higher than that of SDC4_87-131”; the “effects on FN and Col I mRNA vs SDC4_87-131” value is “significantly greater than those of SDC4_87-131”. The “mRNA levels of α-SMA, FN” value in the series with NIH3T3 cells (n=5) is given as “significantly downregulate”. In addition, in the series on pan-integrins, the “inhibition … vs SDC4_87-131” value is reported as “stronger than that of SDC4_87-131”. For the same compound, in series [1], the “reduction of α-SMA protein vs SDC4_87-131” value is “stronger reduction in α-SMA than SDC4_87-131”; the “protein levels … p-FAK and p-PKCα” value is given as “significantly decrease the protein levels”. Besides, the “inhibitory effect on collagen deposition vs SDC4_87-131” value in series [2] (q3d from day 3) is on record as “significantly stronger inhibitory effect on collagen deposition than SDC4_87-131”. Besides, the “anti-PF effect vs SDC4_87-131” value in series [2] (overall, q3d) is “significantly enhanced anti-PF effect compared with SDC4_87-131”. The “effects on α-SMA, FN and IL-6 vs SDC4_87-131” value in series [3] is listed as “significantly stronger than that of SDC4_87-131”.

Source of the values: article PMC12313019, “Fibrotic lung ECM upregulates SDC4/integrin-αvβ1 interaction and the interfering peptide SDC4_87-131 and its derivative peptides alleviate pulmonary fibrosis” (Regenerative Biomaterials, 2025).
